The target of data set [1] is T1, human calcitonin (a) receptor in BHK570 cells (Homo sapiens, UniProt P30988).
T1 construct: expressed in transfected cells
T1 sequence (P30988 25-474): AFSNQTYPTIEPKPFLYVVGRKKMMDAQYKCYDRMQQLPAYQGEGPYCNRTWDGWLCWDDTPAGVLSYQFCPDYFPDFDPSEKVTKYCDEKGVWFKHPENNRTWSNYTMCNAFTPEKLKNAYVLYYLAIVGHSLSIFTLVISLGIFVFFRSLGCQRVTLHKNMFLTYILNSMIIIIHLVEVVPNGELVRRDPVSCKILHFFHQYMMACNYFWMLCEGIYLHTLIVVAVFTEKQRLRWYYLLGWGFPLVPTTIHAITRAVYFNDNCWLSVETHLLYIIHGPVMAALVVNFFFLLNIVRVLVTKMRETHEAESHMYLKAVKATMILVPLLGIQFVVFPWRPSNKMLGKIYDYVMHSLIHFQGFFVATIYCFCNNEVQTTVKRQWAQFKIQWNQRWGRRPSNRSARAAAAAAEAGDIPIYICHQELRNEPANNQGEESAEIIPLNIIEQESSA
Nature of the data set: ASSAY (II)a functional assay, human calcitonin receptor (CRE luciferase). Format: cell-based. Conditions: read-out: hCTR funct. EC50. In outline: (§1)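 Ligand exposure 3 h at 37 °C, 5% CO2 in DMEM with 10% FBS, 10 mM Hepes pH 7.4. cAMP-driven luciferase read by luminescence after 30 min LucLite at room temperature.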

Data set [2] addresses T2, human amylin 3(a) receptor (human calcitonin receptor + RAMP-3) in BHK570 cells (Homo sapiens, UniProt O60896+P30988).
T2 construct: expressed in transfected cells
Nature of the data set: ASSAY (II)a functional assay, human amylin receptor (CRE luciferase). Format: cell-based. Conditions: for EC50: human amylin receptor functional potency, assay (II), read-out: hAmylin-R funct. EC50. In outline:
as §1

Data set [3] addresses T3, human calcitonin receptor (Homo sapiens, UniProt P30988).
T3 construct: expressed in transfected cells
T3 sequence (P30988 25-474): T1 sequence (P30988 25-474)
Nature of the data set: ASSAY (VII) binding to the human calcitonin receptor (SPA, 125I-Calcitonin).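 Also: cell membranes (35 ng/µL) combined with SPA beads in 40 µL of pH 7.4 Hepes buffer, 384-well format, signal counted on a TopCounter instrument.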 Conditions: read-out: hCTR bind IC50.

Another data set has as its system Male Sprague-Dawley rats. Nature of the data set: ASSAY (XI) single subcutaneous administration, food intake monitored for 48 hours in rats. As to conditions: 30 nmol/kg; for Food intake red (%) 0-24 h / Food intake red (%) 24-48 h: single s.c., compared to vehicle; for food intake monitored over 48 hours: single subcutaneous administration, versus vehicle. The format is in vivo, rat. In outline:
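Male Sprague-Dawley rats from Taconic Europe, weighing about 250 g on the test day, were singly housed in an online food intake monitoring system (Ellegaard MBRose, Denmark). Before the study they were acclimatized to a reversed light cycle, with lights on from 10 PM to 10 AM. Each rat then received one subcutaneous dose of the analogue, and data are reported as mean±SEM.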

A short description of data set [4]: ASSAY (X) pK, determination of T½ in rat. The format is in vivo. As to conditions: male, Sprague Dawley, plasma, iv, 20 nmol/kg.
In another data set the test system is Male Wistar rats. Nature of the data set: ASSAY (XII) effect from single subcutaneous administration on plasma calcium in rats. As to conditions: for Plasma calcium red (%) 0-12 h (maximal): single s.c., 30 nmol/kg, compared to vehicle; for suppression of plasma calcium level relative to vehicle: monitored over 24 hours. The format is in vivo, rat. In outline:
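Male Wistar rats (~250 g), groups of five, received a single subcutaneous dose at time 0. Blood drawn at −15 min, 1, 2, 4, 7, 12 and 24 h; total calcium measured in heparin plasma, reported as mean±SEM.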

A short description of data set [5]: ASSAY (IX) pK, determination of T½ in mini-pig. Format: in vivo. Conditions: male, Göttingen, minipig, plasma, iv, 2 nmol/kg.
Setting [6] is: hCTR funct. EC50 divided by hAmylin-R funct. EC50.
The mark [7] stands for this setting: hCTR funct. EC50 over hAmylin-R funct. EC50.
Where [8] appears, read: human functional selectivity: hCTR funct. EC50 / hAmylin-R funct. EC50.

Numbered stars: 1 amine (or outer) side, 2 acyl side, 3 side chain; on linkers, the order of the positions; unused ones are H or OH. Bridge positions count the residues as written; N and C are the ends. Side chains are listed from the residue outwards. Peptide text beside a SMILES is read from it. * marks the point of attachment. C20 diacid = O=C(O)CCCCCCCCCCCCCCCCCCC(=O)*; γGlu = O=C(O)[C@H](CCC(=O)[*:2])N[*:1]; AEEA = NCCOCCOCC(=O)O

T2 sequence (O60896 24-148, one chain of several): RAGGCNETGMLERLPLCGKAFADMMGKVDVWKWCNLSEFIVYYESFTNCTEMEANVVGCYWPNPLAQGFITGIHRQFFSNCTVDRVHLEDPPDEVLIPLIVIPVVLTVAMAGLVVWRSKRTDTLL

With `CC[C@H](C)[C@H](NC(=O)[C@H](C)NC(=O)CNC(=O)[C@H](Cc1ccccc1)NC(=O)[C@H](CC(N)=O)NC(=O)[C@@H]1CCCN1C(=O)[C@H](CO)NC(=O)[C@H](CO)NC(=O)[C@H](Cc1c[nH]cn1)NC(=O)[C@H](CCCNC(=N)N)NC(=O)[C@H](CC(C)C)NC(=O)[C@H](Cc1ccccc1)NC(=O)[C@H](CCC(=O)O)NC(=O)[C@H](C)NC(=O)[C@H](CC(C)C)NC(=O)[C@H](CCCNC(=N)N)NC(=O)[C@H](CCC(N)=O)NC(=O)[C@@H](NC(=O)[C@H](C)NC(=O)[C@@H]1CSSC[C@H](NC(=O)[C@@H](N)CCCCNC(=O)CC[C@H](NC(=O)CC[C@H](NC(=O)CCCCCCCCCCCCCCCCCCC(=O)O)C(=O)O)C(=O)O)C(=O)N[C@@H](CC(N)=O)C(=O)N[C@@H]([C@@H](C)O)C(=O)N[C@@H](C)C(=O)N[C@@H]([C@@H](C)O)C(=O)N1)[C@@H](C)O)C(=O)N1CCC[C@H]1C(=O)N[C@@H](CO)C(=O)N[C@@H](CO)C(=O)N[C@H](C(=O)N[C@@H](CC(N)=O)C(=O)N[C@H](C(=O)NCC(=O)N1CCC[C@H]1C(=O)N[C@@H](CCCNC(=N)N)C(=O)N[C@H](C(=O)N[C@@H](Cc1ccc(O)cc1)C(N)=O)[C@@H](C)O)C(C)C)[C@@H](C)O` [Example 110] (H-K([γGlu-γGlu-C20 diacid])CNTATCATQRLAEFLRHSSPNFGAIPSSTNVGPRTY-NH2; disulfide 2-7), the 50% effective concentration (EC50) (usually the concentration that produces a half-maximal response) in data set [1] is 8.16 nM; in data set [2], 0.278 nM. Further, the “Ratio hCT/hAmylin funct.” value in data set [2] (setting [6]), in data set [2] (setting [7]) and in data set [2] (setting [8]) was 29.3 in each case. The concentration for half-maximal inhibition (IC50) (as a rule, the concentration that gives 50% inhibition) in data set [3] is 17.5 nM. Moreover, the “Food intake red (%) 0-24 h” value with Male Sprague-Dawley rats came to 68%. In the data set with Male Sprague-Dawley rats, the “Food intake red (%) 24-48 h” value was 31%. Further, the “food intake monitored over 48 hours” value in the data set on Male Sprague-Dawley rats is given as “reduces food intake”. Besides, the half-life (as a rule, the time in which the quantity being followed falls by half) in data set [4] is 14 h. For the same compound, the “Plasma calcium red (%) 0-12 h (maximal)” value with Male Wistar rats amounted to 8%. Moreover, in the data set on Male Wistar rats (single subcutaneous 30 nmol/kg), the “suppression of plasma calcium level relative to vehicle” value was “None of the example compounds at 30 nmol/kg trigger a notable suppression of the calcium level”.
As for `CC[C@H](C)[C@H](NC(=O)[C@H](C)NC(=O)CNC(=O)[C@H](Cc1ccccc1)NC(=O)[C@H](CC(N)=O)NC(=O)[C@@H]1CCCN1C(=O)[C@H](CO)NC(=O)[C@H](CO)NC(=O)[C@H](Cc1c[nH]cn1)NC(=O)[C@H](CCCNC(=N)N)NC(=O)[C@H](CC(C)C)NC(=O)[C@H](Cc1ccccc1)NC(=O)[C@H](CCC(=O)O)NC(=O)[C@H](C)NC(=O)[C@H](CC(C)C)NC(=O)[C@H](CCCNC(=N)N)NC(=O)[C@H](CCC(N)=O)NC(=O)[C@@H](NC(=O)[C@H](C)NC(=O)[C@@H]1CSSC[C@H](NC(=O)[C@@H](N)CCCCNC(=O)CC[C@H](NC(=O)CC[C@H](NC(=O)CCCCCCCCCCCCCCCCCCC(=O)O)C(=O)O)C(=O)O)C(=O)N[C@@H](CC(N)=O)C(=O)N[C@@H]([C@@H](C)O)C(=O)N[C@@H](C)C(=O)N[C@@H]([C@@H](C)O)C(=O)N1)[C@@H](C)O)C(=O)N1CCC[C@H]1C(=O)N[C@@H](CO)C(=O)N[C@@H](CO)C(=O)N[C@H](C(=O)N[C@@H](CC(N)=O)C(=O)N[C@H](C(=O)NCC(=O)N[C@@H](CO)C(=O)N[C@@H](CCCNC(=N)N)C(=O)N[C@H](C(=O)N[C@@H](Cc1ccc(O)cc1)C(N)=O)[C@@H](C)O)C(C)C)[C@@H](C)O` [Example 89] (H-K([γGlu-γGlu-C20 diacid])CNTATCATQRLAEFLRHSSPNFGAIPSSTNVGSRTY-NH2; disulfide 2-7 (inferred); N-terminus assumed), the values for the EC50 in data set [1] and in data set [2] were 11.2 nM and 0.404 nM, respectively. For the same compound, the “Ratio hCT/hAmylin funct.” value in data set [2] (setting [6]), in data set [2] (setting [7]) and in data set [2] (setting [8]) was 27.8 throughout. Besides, the half-inhibitory concentration (IC50) in data set [3] was determined as 32.5 nM. Further, the “Food intake red (%) 0-24 h” value with Male Sprague-Dawley rats is listed as 46%. In the data set with Male Sprague-Dawley rats, the “Food intake red (%) 24-48 h” value is 37%. The “food intake monitored over 48 hours” value with Male Sprague-Dawley rats is recorded as “reduce food intake”. This compound also gave a half-life in data set [4] of 23 h. In addition, the “Plasma calcium red (%) 0-12 h (maximal)” value in the data set with Male Wistar rats is recorded as 7%. Further, the entries for the “suppression of plasma calcium level relative to vehicle” value in the data set with Male Wistar rats (single subcutaneous 30 nmol/kg) and in the data set with Male Wistar rats (single subcutaneous 1000 nmol/kg) were “None of the example compounds at 30 nmol/kg trigger a notable suppression of the calcium level” and “induces a more pronounced suppression of the calcium level”, respectively.
With `CC[C@H](C)[C@H](NC(=O)[C@H](C)NC(=O)CNC(=O)[C@H](Cc1ccccc1)NC(=O)[C@H](CC(N)=O)NC(=O)[C@@H]1CCCN1C(=O)[C@H](CO)NC(=O)[C@H](CO)NC(=O)[C@H](Cc1c[nH]cn1)NC(=O)[C@H](CCCNC(=N)N)NC(=O)[C@H](CC(C)C)NC(=O)[C@H](Cc1ccccc1)NC(=O)[C@H](CC(N)=O)NC(=O)[C@H](C)NC(=O)[C@H](CC(C)C)NC(=O)[C@H](CCCNC(=N)N)NC(=O)[C@H](CCC(N)=O)NC(=O)[C@@H](NC(=O)[C@H](C)NC(=O)[C@@H]1CSSC[C@H](NC(=O)[C@@H](N)CCCCNC(=O)COCCOCCNC(=O)CC[C@H](NC(=O)CCCCCCCCCCCCCCCCCCC(=O)O)C(=O)O)C(=O)N[C@@H](CC(N)=O)C(=O)N[C@@H]([C@@H](C)O)C(=O)N[C@@H](C)C(=O)N[C@@H]([C@@H](C)O)C(=O)N1)[C@@H](C)O)C(=O)N1CCC[C@H]1C(=O)N[C@@H](CO)C(=O)N[C@@H](CO)C(=O)N[C@H](C(=O)N[C@@H](CC(N)=O)C(=O)N[C@H](C(=O)NCC(=O)N[C@@H](Cc1c[nH]cn1)C(=O)N[C@@H](CC(N)=O)C(=O)N[C@H](C(=O)N[C@@H](Cc1ccc(O)cc1)C(N)=O)[C@@H](C)O)C(C)C)[C@@H](C)O` [Example 76] (H-K([AEEA-γGlu-C20 diacid])CNTATCATQRLANFLRHSSPNFGAIPSSTNVGHNTY-NH2; disulfide 2-7; N-terminus assumed), the EC50 in data set [1] is 7.37 nM; in data set [2], 0.297 nM. For the same compound, the “Ratio hCT/hAmylin funct.” value in data set [2] (setting [6]), in data set [2] (setting [7]) and in data set [2] (setting [8]) was 24.8 throughout. In addition, in data set [3], the IC50 came out at 17.2 nM. In data set [5], this compound showed a half-life of 76 h.
For the compound `CC[C@H](C)[C@H](NC(=O)[C@H](C)NC(=O)CNC(=O)[C@H](Cc1ccccc1)NC(=O)[C@H](CC(N)=O)NC(=O)[C@@H]1CCCN1C(=O)[C@H](CO)NC(=O)[C@H](CO)NC(=O)[C@H](Cc1c[nH]cn1)NC(=O)[C@H](CCCNC(=N)N)NC(=O)[C@H](CC(C)C)NC(=O)[C@H](Cc1ccccc1)NC(=O)[C@H](Cc1c[nH]cn1)NC(=O)[C@H](C)NC(=O)[C@H](CC(C)C)NC(=O)[C@H](CCCNC(=N)N)NC(=O)[C@H](CCC(N)=O)NC(=O)[C@@H](NC(=O)[C@H](C)NC(=O)[C@@H]1CSSC[C@H](NC(=O)[C@@H](N)CCCCNC(=O)CC[C@H](NC(=O)CCCCCCCCCCCCCCCCCCC(=O)O)C(=O)O)C(=O)N[C@@H](CC(N)=O)C(=O)N[C@@H]([C@@H](C)O)C(=O)N[C@@H](C)C(=O)N[C@@H]([C@@H](C)O)C(=O)N1)[C@@H](C)O)C(=O)N1CCC[C@H]1C(=O)N[C@@H](CO)C(=O)N[C@@H](CO)C(=O)N[C@H](C(=O)N[C@@H](CC(N)=O)C(=O)N[C@H](C(=O)NCC(=O)N[C@@H](CCCNC(=N)N)C(=O)N[C@@H](CC(N)=O)C(=O)N[C@H](C(=O)N[C@@H](Cc1ccc(O)cc1)C(N)=O)[C@@H](C)O)C(C)C)[C@@H](C)O` [Example 85] (H-K([γGlu-C20 diacid])CNTATCATQRLAHFLRHSSPNFGAIPSSTNVGRNTY-NH2; disulfide 2-7 (inferred); N-terminus assumed), the EC50 in data set [1] amounted to 3.88 nM; in data set [2] it was 0.146 nM. In addition, the “Ratio hCT/hAmylin funct.” value in data set [2] (setting [6]), in data set [2] (setting [7]) and in data set [2] (setting [8]) was 26.6 each time. In data set [3], the half-inhibitory concentration (IC50) turned out to be 80.4 nM. Moreover, the half-life in data set [5] is 85 h.
